Data on one compound can be found in US11518981B2, “Methods of enhancing engraftment activity of hematopoietic stem cells” (CHILDREN'S HOSPITAL MEDICAL CENTER, priority 2017, dated 2022).

In one assay the test system is CD34^+38^−90^+ HSCs. Nature of the assay: ROS measurement (MITOSOX / CM-H2DCFDA) in HSCs. The format is cell-based, human. As to conditions: MITOSOX in CD34^+38^−90^+ cells. On the procedure: Freshly isolated CD34^+ cells were used, wherever possible, and especially for 0 h controls. In some experiments cryopreserved CD34^+ cells were thawed for 4 hrs in IMDM containing cytokines, then washed and used for experiments. CD34^+ cells were transduced in X-VIVO 10™ (Lonza) medium supplemented with 2% human serum albumin (Baxter), recombinant human Flt-3 ligand (Flt3-L; 200 ng/mL), stem cell factor (SCF; 300 ng/mL), thrombopoietin (TPO; 100 ng/mL) (all cytokines obtained from PeproTech), and penicillin-streptomycin (ThermoFisher Scientific) on non-tissue culture treated plates coated with retronectin (4 μg/cm2, CH-296, Takara Bio Inc.). […]
PE-Cyanine 7 or APC-EFLUOR® 780, APC- or PE-conjugated antibodies directed to human CD34 (BD Biosciences 560710 or 555824), CD38 (eBiosciences, San Diego, Calif. 47-0389-42), CD90 (BioLegend 328120), CD45RA (eBiosciences 17-0458-42), CD49f (BD Biosciences 555736), CD45 (BD 55485 or Biolegend 304026), CD33 (eBiosciences 25-0338-42), CD19 (BD Biosciences 557791), or CD3 (BD Biosciences 555340). […] Total ROS and mitochondrial specific ROS were detected using 10 μM CM-H2DCFDA (ThermoFisher Scientific C6827) and 5 μM MITOSOX™ Red (Red Mitochondrial Superoxide Indicator) (ThermoFisher Scientific M36008) respectively, following manufacturer's instructions.

The subject of assay [1] is human MPB derived CD34^+ cells. Nature of the assay: multi-lineage reconstitution (myeloid / B-lymphoid) in bone marrow of NSG mice. The format is in vivo. From the text:
NOD.Cg-Prkdcscid Il2rgtm1Wjl/SzJ (NSG) mice were purchased from The Jackson Laboratory (Bar Harbor, Me.). All animals were bred and maintained in a specific pathogen-free environment and all experiments were approved by the Institutional Animal Care and Use (IACUC) Committee. Male and female NSG mice aged 8 to 14 weeks old were fed doxycycline chow (TestDiet; Modified Prolab RMH-1500 with 0.0625% doxycycline) a week prior to, during and for 2 weeks post irradiation. Human engraftment was analyzed in bone marrow (BM), via BM aspirates performed at 6 and 12 weeks from left and right femurs. After sacrifice at 24 weeks, marrow from all of the primary mice (1 T) was harvested. Peripheral blood analysis was also performed in some experiments. Secondary transplants (2 T) were performed after mouse CD45^+ cells were depleted from BM harvested from each 1 T mouse separately, using Biotin Rat Anti-Mouse CD45 (BD Biosciences 553078) and Streptavidin Particles Plus-DM (BD Biosciences 557812) and injected into one irradiated (280 cGy) secondary NSG mouse. For calculating competitive repopulating units (CRU) from limiting dilution transplantation, the L-CALC^TM software (Stem Cell Technologies) was used. All of the mice used for this study were randomly assigned to a treatment group. No animals were excluded from the analysis. PE-Cyanine 7 or APC-EFLUOR® 780, APC- or PE-conjugated antibodies directed to human CD34 (BD Biosciences 560710 or 555824), CD38 (eBiosciences, San Diego, Calif. 47-0389-42), CD90 (BioLegend 328120), CD45RA (eBiosciences 17-0458-42), CD49f (BD Biosciences 555736), CD45 (BD 55485 or Biolegend 304026), CD33 (eBiosciences 25-0338-42), CD19 (BD Biosciences 557791), or CD3 (BD Biosciences 555340). Cells ( 5×10^5-1×10^6) were used to label with antibodies as per manufacturer instructions with the appropriate isotype controls. For phospho-flow, primary antibodies phospho-[…]), phospho-p44/42 MAPK (ERK 1⁄2) […]; […]), and phospho-JNK […] PE conjugate; […]) (all from Cell Signaling) were used for staining overnight followed by wash and secondary antibody stain including Goat anti-Rabbit IgG (H+L) or Goat anti-Rabbit IgG (H+L) or Pacific Blue (P-10994) antibody. Apoptosis assay was performed using PE Annexin V Apoptosis Detection Kit (BD Biosciences 559763) according to the manufacturer's instructions. Total ROS and mitochondrial specific ROS were detected using 10 μM CM-H2DCFDA (ThermoFisher Scientific C6827) and 5 μM MITOSOXTM Red (Red Mitochondrial Superoxide Indicator) (ThermoFisher Scientific M36008) respectively, following manufacturer's instructions.

Consider `Cc1ccc(-n2nc(C(C)(C)C)cc2NC(=O)Nc2ccc(OCCN3CCOCC3)c3ccccc23)cc1` [p38i, 1-[5-tert-butyl-2-(4-methylphenyl)pyrazol-3-yl]-3-[4-(2-morpholin-4-ylethoxy)naphthalen-1-yl]urea], for which the “ROS levels in the HSC compartment” value with CD34^+38^−90^+ HSCs is listed as “no difference”. In assay [1] (24 week 1 T, cycling HSCs transduced (RV group)), the “myeloid skewing of the transduced progeny” value was “somewhat reduced, but still quite significant”. The “multi-potentiality of the graft” value in assay [1] (24 week 1 T, gene transfer in first 24 h (non-cycling HSCs), culture up to 96 h) was “restored the multi-potentiality of the graft at 24 week (1 T) to levels similar to 0 h controls”. Besides, the “lineage balance in transduced HSCs progeny” value in assay [1] (limiting dilution transplant, 42 h LV, 6 mo post 1 T) is recorded as “had less effect”. The “lineage balance in untransduced progeny” value in assay [1] (limiting dilution transplant, 42 h LV, 6 mo post 1 T, higher HSPC dosage) is reported as “sufficient to restore lineage balance”.
